Reference: patent US11739098B2 (BRISTOL-MYERS SQUIBB COMPANY, priority 2017, dated 2023)

What was measured:
Assay type in all cases: cell-based
human TLR7 = target: T1, human TLR7 (Homo sapiens, UniProt Q9NYK1); assay: TLR7 inhibition reporter assay (HEK-Blue cells, SEAP reporter, gardiquimod stimulation); details: HEK-Blue cells overexpressing human TLR7, SEAP reporter, gardiquimod 7.5 μM
T1 construct: host or cells: HEK-Blue cells (HEK293-derived reporter line)
T1 sequence (Q9NYK1 27-1049): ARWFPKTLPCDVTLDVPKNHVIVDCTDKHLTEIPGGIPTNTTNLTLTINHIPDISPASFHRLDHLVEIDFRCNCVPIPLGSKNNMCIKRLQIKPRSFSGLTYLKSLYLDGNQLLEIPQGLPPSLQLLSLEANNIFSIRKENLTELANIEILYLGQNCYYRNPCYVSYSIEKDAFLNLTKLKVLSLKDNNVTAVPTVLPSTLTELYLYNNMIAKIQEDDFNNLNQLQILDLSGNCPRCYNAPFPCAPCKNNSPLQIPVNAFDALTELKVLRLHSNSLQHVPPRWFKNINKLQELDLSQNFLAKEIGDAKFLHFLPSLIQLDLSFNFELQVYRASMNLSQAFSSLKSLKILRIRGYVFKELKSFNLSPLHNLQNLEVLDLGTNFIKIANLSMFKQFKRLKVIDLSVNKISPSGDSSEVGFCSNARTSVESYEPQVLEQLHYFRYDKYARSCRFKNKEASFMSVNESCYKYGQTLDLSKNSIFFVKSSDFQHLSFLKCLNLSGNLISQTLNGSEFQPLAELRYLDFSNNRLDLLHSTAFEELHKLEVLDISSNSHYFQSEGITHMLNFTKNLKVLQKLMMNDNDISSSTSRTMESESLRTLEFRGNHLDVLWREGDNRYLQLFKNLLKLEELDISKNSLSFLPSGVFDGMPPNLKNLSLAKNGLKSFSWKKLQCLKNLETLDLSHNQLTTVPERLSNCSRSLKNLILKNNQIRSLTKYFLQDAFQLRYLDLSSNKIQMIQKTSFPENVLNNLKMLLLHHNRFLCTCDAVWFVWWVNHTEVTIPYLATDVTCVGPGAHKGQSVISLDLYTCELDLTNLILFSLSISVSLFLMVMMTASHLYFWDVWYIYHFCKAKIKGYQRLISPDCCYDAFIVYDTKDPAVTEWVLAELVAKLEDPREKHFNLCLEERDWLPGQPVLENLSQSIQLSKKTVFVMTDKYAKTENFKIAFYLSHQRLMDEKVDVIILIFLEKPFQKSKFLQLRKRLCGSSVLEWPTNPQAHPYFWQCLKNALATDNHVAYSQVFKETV
Method in brief: (§1)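 After 22 h at 37 °C, SEAP secretion was measured from human TLR7-, TLR8- or TLR9-expressing HEK-Blue reporter cells given compound (0.05 nM–50 μM) 30 min before agonist: 7.5 μM gardiquimod, 15.9 μM R848 or 5 nM ODN2006 respectively. Percent inhibition referenced to agonist-plus-DMSO and known-inhibitor wells.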

human TLR8 = target: T2, human TLR8 (Homo sapiens, UniProt Q9NR97); assay: TLR8 inhibition reporter assay (HEK-Blue cells, SEAP reporter, R848 stimulation); details: HEK-Blue cells overexpressing human TLR8, SEAP reporter, R848 15.9 μM
T2 construct: host or cells: HEK-Blue cells (HEK293-derived reporter line)
T2 sequence (Q9NR97 27-1041): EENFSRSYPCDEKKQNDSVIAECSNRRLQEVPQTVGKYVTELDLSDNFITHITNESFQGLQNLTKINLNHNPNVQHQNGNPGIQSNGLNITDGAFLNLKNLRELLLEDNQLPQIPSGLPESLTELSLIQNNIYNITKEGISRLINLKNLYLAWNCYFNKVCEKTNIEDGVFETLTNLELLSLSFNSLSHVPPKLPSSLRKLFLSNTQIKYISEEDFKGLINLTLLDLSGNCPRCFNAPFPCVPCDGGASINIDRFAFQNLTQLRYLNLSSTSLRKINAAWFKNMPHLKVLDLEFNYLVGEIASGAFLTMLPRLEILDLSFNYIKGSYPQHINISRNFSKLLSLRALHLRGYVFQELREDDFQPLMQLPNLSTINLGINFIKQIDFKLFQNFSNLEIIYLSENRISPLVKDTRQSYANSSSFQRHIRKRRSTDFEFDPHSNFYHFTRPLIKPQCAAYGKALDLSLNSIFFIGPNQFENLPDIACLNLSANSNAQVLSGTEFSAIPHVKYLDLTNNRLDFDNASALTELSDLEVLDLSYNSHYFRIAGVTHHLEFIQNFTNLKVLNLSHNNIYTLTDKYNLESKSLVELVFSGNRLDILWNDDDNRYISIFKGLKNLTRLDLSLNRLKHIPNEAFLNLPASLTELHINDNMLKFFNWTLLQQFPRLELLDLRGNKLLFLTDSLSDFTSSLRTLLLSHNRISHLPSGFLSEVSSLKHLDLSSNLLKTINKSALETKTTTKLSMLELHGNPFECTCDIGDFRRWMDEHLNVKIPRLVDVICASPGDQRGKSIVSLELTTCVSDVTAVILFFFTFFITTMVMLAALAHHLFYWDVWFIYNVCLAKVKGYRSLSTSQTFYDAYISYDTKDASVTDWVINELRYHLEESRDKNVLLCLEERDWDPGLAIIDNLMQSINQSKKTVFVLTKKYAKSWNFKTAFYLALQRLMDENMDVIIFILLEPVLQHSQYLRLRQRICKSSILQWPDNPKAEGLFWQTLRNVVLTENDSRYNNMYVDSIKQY
Method in brief: as §1

human TLR9 = target: T3, human TLR9 (Homo sapiens, UniProt Q9NR96); assay: TLR9 inhibition reporter assay (HEK-Blue cells, SEAP reporter, ODN2006 stimulation); details: HEK-Blue cells overexpressing human TLR9, SEAP reporter, ODN2006 5 nM
T3 construct: host or cells: HEK-Blue cells (HEK293-derived reporter line)
T3 sequence (Q9NR96 26-1032): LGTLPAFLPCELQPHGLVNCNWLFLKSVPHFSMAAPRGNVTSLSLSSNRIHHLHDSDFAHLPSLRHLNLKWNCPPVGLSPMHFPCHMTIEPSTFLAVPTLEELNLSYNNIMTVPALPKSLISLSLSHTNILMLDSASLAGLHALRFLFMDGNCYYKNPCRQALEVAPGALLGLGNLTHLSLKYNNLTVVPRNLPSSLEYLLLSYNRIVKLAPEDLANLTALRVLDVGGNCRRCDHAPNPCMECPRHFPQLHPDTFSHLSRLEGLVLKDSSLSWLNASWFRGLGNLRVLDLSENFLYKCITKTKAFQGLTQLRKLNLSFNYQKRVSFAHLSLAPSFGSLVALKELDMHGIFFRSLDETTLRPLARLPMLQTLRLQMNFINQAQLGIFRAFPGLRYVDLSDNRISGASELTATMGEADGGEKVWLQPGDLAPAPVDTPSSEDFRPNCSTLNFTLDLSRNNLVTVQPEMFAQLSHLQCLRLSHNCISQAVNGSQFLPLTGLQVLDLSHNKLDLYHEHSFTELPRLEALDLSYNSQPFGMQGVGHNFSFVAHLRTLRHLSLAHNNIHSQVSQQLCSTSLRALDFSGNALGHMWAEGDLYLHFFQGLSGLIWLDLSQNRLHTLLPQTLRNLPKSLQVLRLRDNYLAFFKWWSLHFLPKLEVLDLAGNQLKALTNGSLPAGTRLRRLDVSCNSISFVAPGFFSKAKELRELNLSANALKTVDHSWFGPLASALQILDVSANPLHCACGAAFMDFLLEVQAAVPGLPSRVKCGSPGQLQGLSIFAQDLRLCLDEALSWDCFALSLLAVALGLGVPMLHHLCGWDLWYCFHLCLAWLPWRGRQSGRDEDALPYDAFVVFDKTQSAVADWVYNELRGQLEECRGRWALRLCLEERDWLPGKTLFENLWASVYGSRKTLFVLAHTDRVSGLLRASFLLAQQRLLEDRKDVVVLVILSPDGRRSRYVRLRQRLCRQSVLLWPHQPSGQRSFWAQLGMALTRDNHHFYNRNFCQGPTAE
Method in brief: as §1

Row | Structure (SMILES) | IC50 (human TLR7) [µM] | IC50 (human TLR8) [µM] | IC50 (human TLR9) [µM]
1 | Cc1cc2cc(-c3[nH]c4ccc(C5CCN(C6COC6)CC5)cc4c3C(C)C)cc(CC(C)C)n2n1 [Example 716, 7-isobutyl-5-(3-isopropyl-5-(1-(oxetan-3-yl)piperidin-4-yl)-1H-indol-2-yl)-2-methylpyrazolo[1,5-a]pyridine] | > 3.13 | > 3.13 | 1 to 50
2 | Cc1cc(-c2[nH]c3ccc(C4CCNCC4)cc3c2C(C)C)cn2nncc12 [Example 70, 6-(3-isopropyl-5-(piperidin-4-yl)-1H-indol-2-yl)-4-methyl-[1,2,3]triazolo[1,5-a]pyridine] | 0.1 to 1 | 0.1 to 1 | 1 to 50
3 | CCc1c(-c2cccc3[nH]ncc23)[nH]c2ccc(C3CCN(CC(=O)N(C)C)CC3)cc12 [Example 389, 2-(4-(3-ethyl-2-(1H-indazol-4-yl)-1H-indol-5-yl)piperidin-1-yl)-N,N-dimethylacetamide] | 1 to 50 | 1 to 50 | 1 to 50
4 | CCc1c(-c2n[nH]c3ncccc23)[nH]c2ccc(C3CCNCC3)cc12 [Example 244, 3-(3-ethyl-5-(piperidin-4-yl)-1H-indol-2-yl)-1H-pyrazolo[3,4-b]pyridine] | 0.1 to 1 | 0.1 to 1 | 1 to 50
5 | Cc1cc(-c2[nH]c3ccc(C4CCN(C5COC5)CC4)cc3c2C(C)C)cn2ccnc12 [Example 719, 6-(3-isopropyl-5-(1-(oxetan-3-yl)piperidin-4-yl)-1H-indol-2-yl)-8-methylimidazo[1,2-a]pyridine] | < 0.1 | < 0.1 | 0.1 to 1
6 | CC(C)c1c(-c2ccc3ncnn3n2)[nH]c2ccc(C3CCNCC3)cc12 [Example 242, 6-(3-isopropyl-5-(piperidin-4-yl)-1H-indol-2-yl)-[1,2,4]triazolo[1,5-b]pyridazine] | < 0.1 | < 0.1 | 1 to 50
7 | CC(C)c1c(-c2ccn3nnnc3c2)[nH]c2ccc(C3CCN(CC(=O)N(C)C)CC3)cc12 [Example 304, 2-(4-(3-isopropyl-2-(tetrazolo[1,5-a]pyridin-7-yl)-1H-indol-5-yl)piperidin-1-yl)-N,N-dimethylacetamide] | < 0.1 | 0.1 to 1 | 1 to 50
8 | CCc1c(-c2ccnc3[nH]ccc23)[nH]c2ccc(C3CCN(C4CCN(C)CC4)CC3)cc12 [Example 839, 4-(3-ethyl-5-(1′-methyl-[1,4′-bipiperidin]-4-yl)-1H-indol-2-yl)-1H-pyrrolo[2,3-b]pyridine] | < 0.1 | < 0.1 | < 0.1
9 | CC(C)c1c(-c2cnc3ccnn3c2)[nH]c2ccc(C3CCN(C(C)C)CC3)cc12 [Example 944, 6-(3-isopropyl-5-(1-isopropylpiperidin-4-yl)-1H-indol-2-yl)pyrazolo[1,5-a]pyrimidine] | 1 to 50 | > 3.13 | 1 to 50
10 | CNC(=O)CN1CCC(c2ccc3[nH]c(-c4cc(C)c5nc(C)cn5c4)c(C(C)C)c3c2)CC1 [Example 391, 2-(4-(2-(2,8-dimethylimidazo[1,2-a]pyridin-6-yl)-3-isopropyl-1H-indol-5-yl)piperidin-1-yl)-N-methylacetamide] | < 0.1 | < 0.1 | 0.1 to 1
11 | Cc1c(-c2[nH]c3ccc(C4CCN(CC(=O)N(C)C)CC4)cc3c2C(C)C)ccc2nnnn12 [Example 308, 2-(4-(3-isopropyl-2-(5-methyltetrazolo[1,5-a]pyridin-6-yl)-1H-indol-5-yl)piperidin-1-yl)-N,N-dimethylacetamide] | 0.1 to 1 | < 0.1 | 1 to 50
12 | Cc1cn2cc(-c3[nH]c4ccc(C5CCN(C(=O)CN(C)C)CC5)cc4c3C(C)C)ccc2n1 [Example 523, 2-(dimethylamino)-1-(4-(3-isopropyl-2-(2-methylimidazo [1,2-a]pyridin-6-yl)-1H-indol-5-yl)piperidin-1-yl)ethan-1-one] | < 0.1 | 0.1 to 1 | 0.1 to 1
13 | Cc1nc2cc(-c3[nH]c4ccc(C5CCN(C(=O)[C@@H]6C[C@@H](O)CN6)CC5)cc4c3C(C)C)ccn2n1 [Example 540, ((2S,4R)-4-hydroxypyrrolidin-2-yl)(4-(3-isopropyl-2-(2-methyl-[1,2,4]triazolo[1,5-a]pyridin-7-yl)-1H-indol-5-yl)piperidin-1-yl) methanone] | < 0.1 | 1 to 50 | 1 to 50
14 | CC(C)c1c(-c2ccnc3[nH]ncc23)[nH]c2ccc(C3CCN(C(=O)Cn4ccnc4)CC3)cc12 [Example 565, 2-(1H-imidazol-1-yl)-1-(4-(3-isopropyl-2-(1H-pyrazolo[3,4-b]pyridin-4-yl)-1H-indol-5-yl)piperidin-1-yl)ethan-1-one] | < 0.1 | < 0.1 | 1 to 50
15 | COc1cc(-c2[nH]c3ccc(C4CCN(CC(=O)N(C)C)CC4)cc3c2C(C)C)cc2ncnn12 [Example 333, 2-(4-(3-isopropyl-2-(5-methoxy-[1,2,4]triazolo[1,5-a]pyridin-7-yl)-1H-indol-5-yl)piperidin-1-yl)-N,N-dimethylacetamide] | < 0.1 | < 0.1 | 1 to 50
